Numbered stars: 1 amine (or outer) side, 2 acyl side, 3 side chain; on linkers, the order of the positions; unused ones are H or OH. Square brackets hold non-standard residues; d marks the D form. Side chains are listed from the residue outwards. Peptide text beside a SMILES is read from it. * marks the point of attachment. C20 diacid = O=C(O)CCCCCCCCCCCCCCCCCCC(=O)*; αMePhe(2-F) = C[C@](N)(Cc1ccccc1F)C(=O)O; γGlu = O=C(O)[C@H](CCC(=O)[*:2])N[*:1]; 4Pal = N[C@@H](Cc1ccncc1)C(=O)O; αMeL = CC(C)C[C@](C)(N)C(=O)O; AEEA = NCCOCCOCC(=O)O; Aib = CC(C)(N)C(=O)O
Assays:
[1] = molecular target: T1, human Gcg receptor (Homo sapiens, UniProt P47871); experiment: [125I]-Glucagon binding (SPA), human Gcg receptor; conditions: read-out: hGLcgR Ki, nM (SEM, n)
T1 construct: expressed in transfected cells; crude membranes
In short: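 Scintillation counts are taken after membranes and WGA beads incubate and settle for 12 hours at room temperature. Buffer is 25 mM HEPES, pH 7.4, with CaCl2, MgCl2, bacitracin and Tween-20. Ki values, from four-parameter IC50 fits, are geometric means over independent days.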

[2] = molecular target: T2, human GIP receptor (Homo sapiens, UniProt P48546); experiment: [125I]-GIP binding (SPA), human GIP receptor; conditions: read-out: hGIPR Ki, nM (SEM, n)
T2 construct: expressed in transfected cells; crude membranes
T2 sequence (P48546 22-466): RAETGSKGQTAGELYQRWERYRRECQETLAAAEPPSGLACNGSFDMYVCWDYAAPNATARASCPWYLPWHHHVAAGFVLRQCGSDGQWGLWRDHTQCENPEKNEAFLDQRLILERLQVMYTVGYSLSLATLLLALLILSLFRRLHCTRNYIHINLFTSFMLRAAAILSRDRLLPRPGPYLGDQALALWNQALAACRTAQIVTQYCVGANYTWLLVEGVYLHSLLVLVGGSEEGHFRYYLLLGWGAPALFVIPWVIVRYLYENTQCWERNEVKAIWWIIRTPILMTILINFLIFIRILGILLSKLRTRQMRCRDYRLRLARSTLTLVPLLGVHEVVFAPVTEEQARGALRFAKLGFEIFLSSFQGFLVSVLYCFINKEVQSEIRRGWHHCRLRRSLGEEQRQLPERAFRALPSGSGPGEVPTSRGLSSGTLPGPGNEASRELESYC

[3] = molecular target: human GLP-1 receptor (GLP-1R) (Homo sapiens, UniProt P43220); experiment: cAMP pharmacological functional assay in presence of casein, hGLP-1R; assay type: cell-based; conditions: HEK293 cells expressing hGLP-1R, 0.1% Casein, geometric mean; read-out: hGLP1R cAMP Rel EC50 nM (SEM, n)
[4] = molecular target: T3, gastric inhibitory peptide receptor (GIPR) (Homo sapiens, UniProt P48546); experiment: cAMP pharmacological functional assay in presence of casein, hGIPR; assay type: cell-based; conditions: HEK293 cells expressing hGIPR, 0.1% Casein, geometric mean; read-out: hGIPR cAMP Rel EC50 nM (SEM, n)
T3 sequence (P48546 22-466): T2 sequence (P48546 22-466)

[5] = molecular target: human GLP-1R (Homo sapiens, UniProt P43220); experiment: [125I]-GLP-1 binding (SPA), human GLP-1 receptor; set-up: expressed in transfected cells; crude membranes; conditions: read-out: hGLP1R Ki, (nM) (SEM, n)
In short: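 Membranes: hypotonic lysis (50 mM Tris HCl, pH 7.5, protease inhibitors), Potter-Elvehjem homogenization, high-speed pellet (35000×g 1 h or 25000×g 30 min, 4° C.). Buffer: 25 mM HEPES pH 7.4, 2.5 mM CaCl2, 1 mM MgCl2. Four-parameter IC50 fit; Ki as geometric mean ± SEM.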

Chain of human GLP-1R (P43220 24-463): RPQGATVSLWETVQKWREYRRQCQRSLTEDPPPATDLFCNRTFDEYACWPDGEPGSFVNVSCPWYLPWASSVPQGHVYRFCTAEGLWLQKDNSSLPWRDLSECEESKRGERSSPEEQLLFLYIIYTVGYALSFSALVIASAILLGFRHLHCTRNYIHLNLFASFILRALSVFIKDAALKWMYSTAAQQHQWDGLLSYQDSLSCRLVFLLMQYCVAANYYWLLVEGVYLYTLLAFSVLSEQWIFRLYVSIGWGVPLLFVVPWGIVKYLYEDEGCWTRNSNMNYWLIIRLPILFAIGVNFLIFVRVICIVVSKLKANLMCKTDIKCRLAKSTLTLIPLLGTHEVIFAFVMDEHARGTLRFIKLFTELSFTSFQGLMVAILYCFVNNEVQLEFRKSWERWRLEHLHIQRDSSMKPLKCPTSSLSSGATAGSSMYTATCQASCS
Chain of human GLP-1 receptor (GLP-1R) (P43220 24-463): as above
T1 sequence (P47871 26-477): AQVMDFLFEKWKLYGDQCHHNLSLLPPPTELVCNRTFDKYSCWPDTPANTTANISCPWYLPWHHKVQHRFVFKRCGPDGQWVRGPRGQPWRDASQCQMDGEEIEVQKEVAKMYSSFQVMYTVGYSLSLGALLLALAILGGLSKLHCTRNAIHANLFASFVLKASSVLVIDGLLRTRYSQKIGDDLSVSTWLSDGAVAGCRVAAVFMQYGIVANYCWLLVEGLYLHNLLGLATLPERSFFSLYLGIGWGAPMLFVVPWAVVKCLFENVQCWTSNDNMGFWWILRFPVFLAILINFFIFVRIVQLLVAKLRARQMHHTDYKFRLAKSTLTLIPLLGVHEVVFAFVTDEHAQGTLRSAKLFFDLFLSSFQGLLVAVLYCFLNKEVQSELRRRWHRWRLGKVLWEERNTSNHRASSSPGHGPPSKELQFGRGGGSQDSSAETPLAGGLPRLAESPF

Structure (SMILES) | Ki [1] | Ki [2] | EC50 [3] | EC50 [4] | Ki [5]
CC[C@H](C)[C@H](NC(=O)[C@H](CC(C)C)NC(=O)[C@H](Cc1ccc(O)cc1)NC(=O)[C@H](CCC(=O)O)NC(=O)[C@@H](NC(=O)[C@H](Cc1ccccc1)NC(=O)[C@H](CCC(=O)O)NC(=O)C(C)(C)NC(=O)[C@H](CCC(N)=O)NC(=O)[C@H](C)NC(=O)[C@H](CCCCNC(=O)COCCOCCNC(=O)COCCOCCNC(=O)CC[C@H](NC(=O)CCCCCCCCCCCCCCCCCCC(=O)O)C(=O)O)NC(=O)[C@H](CCC(=O)O)NC(=O)[C@H](CC(=O)O)NC(=O)[C@H](CC(C)C)NC(=O)[C@](C)(CC(C)C)NC(=O)[C@@H](NC(=O)[C@H](CO)NC(=O)[C@H](Cc1ccncc1)NC(=O)[C@H](CC(=O)O)NC(=O)[C@H](CO)NC(=O)[C@@H](NC(=O)[C@](C)(Cc1ccccc1F)NC(=O)[C@@H](NC(=O)CNC(=O)[C@H](CCC(=O)O)NC(=O)C(C)(C)NC(=O)[C@@H](N)Cc1ccc(O)cc1)[C@@H](C)O)[C@@H](C)O)[C@@H](C)CC)[C@@H](C)CC)C(=O)N[C@@H](CCC(=O)O)C(=O)NCC(=O)NCC(=O)N1CCC[C@H]1C(=O)N[C@@H](CO)C(=O)N[C@@H](CO)C(=O)NCC(=O)N[C@@H](C)C(=O)N1CCC[C@H]1C(=O)N1CCC[C@H]1C(=O)N1CCC[C@H]1C(=O)N[C@@H](CO)C(N)=O [Example 158] (H-Y[Aib]EGT[αMePhe(2-F)]TSD[4Pal]SI[αMeL]LDEK([AEEA-AEEA-γGlu-C20 diacid])AQ[Aib]EFIEYLIEGGPSSGAPPPS-NH2; N-terminus assumed) | 285 nM | 0.114 nM | 0.0374 nM | 0.0454 nM | 11.8 nM
CC[C@H](C)[C@H](NC(=O)[C@H](CC(C)C)NC(=O)[C@H](Cc1ccc(O)cc1)NC(=O)[C@@H](CCC(=O)O)NC(=O)[C@@H](NC(=O)[C@H](Cc1ccccc1)NC(=O)[C@@H](NC(=O)C(C)(C)NC(=O)[C@H](CCC(N)=O)NC(=O)[C@H](C)NC(=O)[C@H](CCCCNC(=O)COCCOCCNC(=O)COCCOCCNC(=O)CC[C@H](NC(=O)CCCCCCCCCCCCCCCCCCC(=O)O)C(=O)O)NC(=O)[C@H](CCC(=O)O)NC(=O)[C@H](CC(=O)O)NC(=O)[C@H](CC(C)C)NC(=O)[C@](C)(CC(C)C)NC(=O)[C@@H](NC(=O)[C@H](CO)NC(=O)C(C)(C)NC(=O)[C@H](CC(=O)O)NC(=O)[C@H](CO)NC(=O)[C@@H](NC(=O)[C@](C)(Cc1ccccc1F)NC(=O)[C@@H](NC(=O)CNC(=O)[C@H](CCC(=O)O)NC(=O)C(C)(C)NC(=O)[C@@H](N)Cc1ccc(O)cc1)[C@@H](C)O)[C@@H](C)O)[C@@H](C)CC)[C@@H](C)O)[C@@H](C)CC)C(=O)N[C@@H](CCC(=O)O)C(=O)NCC(=O)NCC(=O)N1CCC[C@H]1C(=O)N[C@@H](CO)C(=O)N[C@@H](CO)C(=O)NCC(=O)N[C@@H](C)C(=O)N1CCC[C@H]1C(=O)N1CCC[C@H]1C(=O)N1CCC[C@H]1C(=O)N[C@@H](CO)C(N)=O [Example 160] (H-Y[Aib]EGT[αMePhe(2-F)]TSD[Aib]SI[αMeL]LDEK([AEEA-AEEA-γGlu-C20 diacid])AQ[Aib]TFI[dE]YLIEGGPSSGAPPPS-NH2) | > 1060 nM | 5.98 nM | 0.0461 nM | 21 nM | 14.4 nM
CC[C@H](C)[C@H](NC(=O)[C@H](CC(C)C)NC(=O)[C@H](Cc1ccc(O)cc1)NC(=O)[C@H](CCC(=O)O)NC(=O)[C@@H](NC(=O)[C@H](Cc1ccccc1)NC(=O)[C@H](CCC(=O)O)NC(=O)C(C)(C)NC(=O)[C@H](CCC(N)=O)NC(=O)[C@H](C)NC(=O)[C@H](CCCCNC(=O)COCCOCCNC(=O)COCCOCCNC(=O)CC[C@H](NC(=O)CCCCCCCCCCCCCCCCCCC(=O)O)C(=O)O)NC(=O)[C@H](CCC(=O)O)NC(=O)[C@H](CC(=O)O)NC(=O)[C@H](CC(C)C)NC(=O)[C@](C)(CC(C)C)NC(=O)[C@@H](NC(=O)[C@H](CO)NC(=O)[C@H](Cc1ccc(O)cc1)NC(=O)[C@H](CC(=O)O)NC(=O)[C@H](CO)NC(=O)[C@@H](NC(=O)[C@](C)(Cc1ccccc1F)NC(=O)[C@@H](NC(=O)CNC(=O)[C@H](CCC(=O)O)NC(=O)C(C)(C)NC(=O)[C@@H](N)Cc1c[nH]cn1)[C@@H](C)O)[C@@H](C)O)[C@@H](C)CC)[C@@H](C)CC)C(=O)N[C@@H](CCC(=O)O)C(=O)NCC(=O)NCC(=O)N1CCC[C@H]1C(=O)N[C@@H](CO)C(=O)N[C@@H](CO)C(=O)NCC(=O)N[C@@H](C)C(=O)N1CCC[C@H]1C(=O)N1CCC[C@H]1C(=O)N1CCC[C@H]1C(=O)N[C@@H](CO)C(N)=O [Example 163] (H-H[Aib]EGT[αMePhe(2-F)]TSDYSI[αMeL]LDEK([AEEA-AEEA-γGlu-C20 diacid])AQ[Aib]EFIEYLIEGGPSSGAPPPS-NH2) | 117 nM | 0.116 nM | 0.0316 nM | 0.121 nM | 10.8 nM
CC[C@H](C)[C@H](NC(=O)[C@H](CC(C)C)NC(=O)[C@H](Cc1ccc(O)cc1)NC(=O)C(C)(C)NC(=O)[C@@H](NC(=O)[C@H](Cc1ccccc1)NC(=O)[C@H](CCC(=O)O)NC(=O)C(C)(C)NC(=O)[C@H](CCC(N)=O)NC(=O)[C@H](C)NC(=O)[C@H](CCCCNC(=O)COCCOCCNC(=O)COCCOCCNC(=O)CC[C@H](NC(=O)CCCCCCCCCCCCCCCCCCC(=O)O)C(=O)O)NC(=O)[C@H](CCC(=O)O)NC(=O)[C@H](CC(=O)O)NC(=O)[C@H](CC(C)C)NC(=O)[C@](C)(CC(C)C)NC(=O)[C@@H](NC(=O)[C@H](CO)NC(=O)[C@H](Cc1ccncc1)NC(=O)[C@H](CC(=O)O)NC(=O)[C@H](CO)NC(=O)[C@@H](NC(=O)[C@](C)(Cc1ccccc1F)NC(=O)[C@@H](NC(=O)CNC(=O)[C@H](CCC(=O)O)NC(=O)C(C)(C)NC(=O)[C@@H](N)Cc1ccc(O)cc1)[C@@H](C)O)[C@@H](C)O)[C@@H](C)CC)[C@@H](C)CC)C(=O)N[C@@H](CCC(=O)O)C(=O)NCC(=O)NCC(=O)N1CCC[C@H]1C(=O)N[C@@H](CO)C(=O)N[C@@H](CO)C(=O)NCC(=O)N[C@@H](C)C(=O)N1CCC[C@H]1C(=O)N1CCC[C@H]1C(=O)N1CCC[C@H]1C(=O)N[C@@H](CO)C(N)=O [Example 189] (H-Y[Aib]EGT[αMePhe(2-F)]TSD[4Pal]SI[αMeL]LDEK([AEEA-AEEA-γGlu-C20 diacid])AQ[Aib]EFI[Aib]YLIEGGPSSGAPPPS-NH2) | 146 nM | 0.128 nM | 0.0608 nM | 0.0775 nM | 8.81 nM
CC[C@H](C)[C@H](NC(=O)[C@H](CC(C)C)NC(=O)[C@H](Cc1ccc(O)cc1)NC(=O)[C@@H](CCC(=O)O)NC(=O)[C@@H](NC(=O)[C@H](Cc1ccccc1)NC(=O)[C@H](CCC(=O)O)NC(=O)C(C)(C)NC(=O)[C@H](CCC(N)=O)NC(=O)[C@H](C)NC(=O)[C@H](CCCCNC(=O)COCCOCCNC(=O)COCCOCCNC(=O)CC[C@H](NC(=O)CCCCCCCCCCCCCCCCCCC(=O)O)C(=O)O)NC(=O)[C@H](CCC(=O)O)NC(=O)[C@H](CC(=O)O)NC(=O)[C@H](CC(C)C)NC(=O)[C@](C)(CC(C)C)NC(=O)[C@@H](NC(=O)[C@H](CO)NC(=O)[C@@H](NC(=O)[C@H](CC(=O)O)NC(=O)[C@H](CO)NC(=O)[C@@H](NC(=O)[C@](C)(Cc1ccccc1F)NC(=O)[C@@H](NC(=O)CNC(=O)[C@H](CCC(=O)O)NC(=O)C(C)(C)NC(=O)[C@@H](N)Cc1ccc(O)cc1)[C@@H](C)O)[C@@H](C)O)C(C)C)[C@@H](C)CC)[C@@H](C)CC)C(=O)N[C@@H](CCC(=O)O)C(=O)NCC(=O)NCC(=O)N1CCC[C@H]1C(=O)N[C@@H](CO)C(=O)N[C@@H](CO)C(=O)NCC(=O)N[C@@H](C)C(=O)N1CCC[C@H]1C(=O)N1CCC[C@H]1C(=O)N1CCC[C@H]1C(=O)N[C@@H](CO)C(N)=O [Example 191] (H-Y[Aib]EGT[αMePhe(2-F)]TSDVSI[αMeL]LDEK([AEEA-AEEA-γGlu-C20 diacid])AQ[Aib]EFI[dE]YLIEGGPSSGAPPPS-NH2) | 348 nM | 0.144 nM | 0.0356 nM | 0.0645 nM | 4.52 nM
